From US20210069223A1, “USE OF COMPOUND FOR PREVENTING AND/OR TREATING OBESITY” (TCI CO., LTD., priority 2019, published 2021)

Tested on: bone marrow stromal cells of mice (ATCC CRL-2749) differentiated into adipocytes
Experiment: Promoting lipolysis: glycerol outside the cells measured by glycerol assay kit in adipocytes differentiated from bone marrow stromal cells
Format: cell-based
Details: cultured at 37° C. for 7 days, OD 540 nm, FIG. 12; for lipolysis promoted in comparison with the control group: 10 μg compound per mL in the well
Protocol: According to the present embodiment, bone marrow stromal cells of mice were used for testing the efficacy of the compound TC-CA-01, the compound TCI-CA-02, the compound TC-CA-03, the compound TCI-CA-04, and the compound TCI-CA-05 for prompting lipolysis. The bone marrow stromal cells of mice were purchased from American Type Culture Collection (American ATCC®), and the No. was CRL-2749M. Before differentiation, the cells were cultured in a pre-adipocyte expansion medium, including 90 vol % of an α-MEM (Minimum Essential Medium Eagle-Alpha Modification, purchased from Gibco, No. 11095080, America) cell culture medium, and 10 vol % of fetal bovine serum (purchased from Gibco, No. 10437-028, America). In addition, 1.0 vol % of penicillin-streptomycin (purchased from Gibco, No. 15140122, America) was added. A differentiation medium was used for differentiating the bone marrow stromal cells of mice, and included 90 vol % of α-MEM cell culture medium, and 10 vol % of fetal bovine serum. In addition, 1.0 vol % of penicillin-streptomycin was added.
The bone marrow stromal cells of mice were inoculated in a culture tray by 8×10^4 cells/0.5 mL of the above pre-adipocyte expansion medium in each well. Culture was performed at 37° C. for 7 days. The culture medium in each well was replaced by the above mentioned fresh differentiation medium once every 3 days during the period. After 7 days, a microscope was used to observe and confirm that the lipid droplets have formed so as to ensure the cells completely differentiated into adipocytes. […]
Then, a value of glycerol outside the cells was measured by a glycerol assay kit (purchased from Cayman Chemical, No. 10011725, America). […] This kit quantified the value of glycerol outside the cells by measuring the content of a product of a coupling enzyme reaction system capable of generating a bright purple, and used a glycerol standard in the kit to build a standard curve so as to reckon the value of the glycerol outside the cells of a sample. […]

SMILES: O=C1CC(c2ccc(O)cc2)Oc2cc(O)cc(O)c21 (stereo not drawn) [TCI-CA-03, 5,7-Dihydroxy-2-(4-hydroxyphenyl) chroman-4-one]
- lipolysis promoted in comparison with the control group: 15%

SMILES: COc1cc(/C=C/C(=O)O)ccc1O [TCI-CA-01, 4-hydroxy-3-methoxycinnamic acid]
- efficacy for promoting lipolysis in comparison with the control group (result in words) (10 μg of each compound per mL in the well): effectively promoted

SMILES: C[C@@H]1O[C@@H](O[C@H]2[C@H](Oc3cc(O)c4c(c3)O[C@H](c3ccc(O)cc3)CC4=O)O[C@H](CO)[C@@H](O)[C@@H]2O)[C@H](O)[C@H](O)[C@H]1O [TCI-CA-02]
- lipolysis promoted in comparison with the control group: 8%
